{"source": "patent US10857230B2", "about": "“Co-therapy comprising a small molecule CSF-1R inhibitor and an agonistic antibody that specifically binds CD40 for the treatment of cancer” (Janssen Biotech, Inc., priority 2017, dated 2020)", "test_system": "CT26 murine colon carcinoma cells", "experiment": "CT26 Tumor Size Assay (Example 2)", "format": "in vivo, BALB/c mice", "settings": "for Median TTE: 39-day study", "experimental": "The animals were fed ad libitum water (reverse osmosis, 1 ppm CI) and NIH 31 Modified and Irradiated Lab Diet® consisting of 18.0% crude protein, 5.0% crude fat, and 5.0% crude fiber. The mice were housed on irradiated Enrich-o'Cobs™ bedding in static microisolators on a 12-hour light cycle at 20-22° C. (68-72° F.) and 40-60% humidity.\nCT26 murine colon carcinoma cells were grown in RPMI-1640 medium containing 10% fetal bovine serum, 2 mM glutamine, 100 units/mL penicillin G sodium, 100 μg/mL streptomycin sulfate, and 25 μg/mL gentamicin. The cells were cultured in tissue culture flasks in a humidified incubator at 37° C., in an atmosphere of 5% CO2 and 95% air.\nThe CT26 colon cells used for implantation were harvested during log phase growth and re-suspended in cold PBS. Each mouse was injected subcutaneously in the right flank with 3×10^5 tumor cells (0.1 mL cell suspension) and tumors were monitored as their volumes approached the target range of 75 to 125 mm3. Fourteen days after tumor implantation, on Day 1 of the study, animals with individual tumor volumes ranging from 75 to 125 mm^3 were sorted into fourteen groups (n=10) with group mean tumor volumes of 118-119 mm3. Tumors were measured with calipers twice weekly in two dimensions.\nwhere w=width and l=length, in mm, of a tumor. Tumor weight was estimated with the assumption that 1 mg is equivalent to 1 mm3 of tumor volume.\nThe compound of formula (I), rat IgG2a (Clone 2A3) (5.55 mg/mL), anti-mCD40 (Clone FGK45) (5.46 mg/mL, purchased from BioXCell, anti-mouse CD40, Clone: FGK45, SKU: 13E0016-2, Lot No. 4699/0614B), and anti-CSF1R (5.41 mg/mL, purchased from BioXCell anti-mouse CSF1R (CD115), Clone: AFS98, SKU: BE0213, Lot No. 5248/0814) were used as test compounds, alone and in combination. The compound of formula (I) was stored at room temperature and antibody stock solutions were stored at 4° C. upon receipt.\nEach week of dosing, the compound of formula (I) was dissolved in 0.5% HPMC to yield a 1.0 mg/mL dosing solution. The dosing solution was stored at 4° C., protected from light. The rat IgG2a isotype and anti-CSF1R dosing solutions were prepared fresh each day by diluting aliquots of the stock solutions with PBS to yield 1.0 mg/mL dosing solutions. The dosing solutions were stored at 4° C., protected from light. The anti-mCD40 dosing solution was prepared fresh each day by diluting an aliquot of the stock solution with PBS to yield a 0.5 mg/mL dosing solution. The dosing solution was stored at 4° C., protected from light.\nOn Day 1 of the study, fourteen groups of BALB/c mice (n=10) began dosing according to the following protocol.\nThe vehicle (0.5% HPMC) and the compound of formula (I) were administered orally (p.o.). The rat IgG2a isotype control, anti-mCD40, and anti-CSF1R were administered intraperitoneally (i.p.). Rat IgG2a(2A3), the compound of formula (I) and the anti-CSF1R were administered at 10 mg/kg. The anti-mCD40 was administered at 5 mg/kg. The dosing volume for all animals was 10 mL/kg (0.2 mL per 20-g mouse) and was adjusted for body weight.\nTumors were measured using calipers twice per week. The study endpoint was originally defined as a mean tumor volume of 1500 mm^3 in the control group or 60 days, whichever came first. Day 15 was chosen for TGI analysis. The MTV (n), the median tumor volume for the number of animals, n, on Day 15, was determined for each group. Percent tumor growth inhibition (% TGI) was defined as the difference between the MTV of the designated control group (Group 1) and the MTV of the drug-treated group, expressed as a percentage of the MTV of the control group: […]\nThe data set for TGI analysis includes all animals in a group, except those that die due to treatment-related (TR) or non-treatment-related (NTR) causes.\nAnimals were monitored individually for tumor growth until Day 39. The study protocol specified a tumor growth delay assay based on the median time-to-endpoint (TTE) in a treated group versus the control group. […]", "key": {"[1]": {"settings": "Groups 3-7: all dosing from Day 1 (antibodies i.p. Days 1, 5, 9, formula (I) p.o. bid×14), formula (I) and anti-CSF1R 10 mg/kg, anti-mCD40 5 mg/kg, vs rat IgG2a control Group 1"}, "[2]": {"settings": "Groups 9, 11, 13, 14: formula (I) 10 mg/kg p.o. bid×14 beginning Day 4 or anti-CSF1R 10 mg/kg i.p. Days 4, 8, 12, in combinations anti-mCD40 5 mg/kg i.p. Days 1, 5, 9, vs rat IgG2a control Group 1"}}, "note": "Values joined by “and” are separate entries in the source; they are usually repeats but may differ in a detail not shown here. Identical values can stand only once.", "data": [{"compound": "CC1(C)CC=C(c2nc(C3CC(C)(C)OC(C)(C)C3)ccc2NC(=O)c2nc(C#N)c[nH]2)CC1", "note": "[compound of formula (I), 4-cyano-N-(2-(4,4-dimethylcyclohex-1-en-1-yl)-6-(2,2,6,6-tetramethyltetrahydro-2H-pyran-4-yl)pyridin-3-yl)-1H-imidazole-2-carboxamide]", "values": [{"measurement": "MTV (n) Day 15", "setting": "Day 15, Groups 3-7: all dosing from Day 1 (antibodies i.p. Days 1, 5, 9, formula (I) p.o. bid×14), formula (I) and anti-CSF1R 10 mg/kg, anti-mCD40 5 mg/kg", "value": 1913, "unit": "mm^3"}, {"measurement": "MTV (n) Day 15", "setting": "Day 15, Groups 9, 11, 13, 14: formula (I) 10 mg/kg p.o. bid×14 beginning Day 4 or anti-CSF1R 10 mg/kg i.p. Days 4, 8, 12, in combinations anti-mCD40 5 mg/kg i.p. Days 1, 5, 9", "value": "1545 mm^3 and 1545 (8) mm^3"}, {"measurement": "% TGI", "setting": "Day 15, vs rat IgG2a control Group 1, Groups 3-7: all dosing from Day 1 (antibodies i.p. Days 1, 5, 9, formula (I) p.o. bid×14), formula (I) and anti-CSF1R 10 mg/kg, anti-mCD40 5 mg/kg", "value": 23, "unit": "%"}, {"measurement": "% TGI", "setting": "Day 15, vs rat IgG2a control Group 1, Groups 9, 11, 13, 14: formula (I) 10 mg/kg p.o. bid×14 beginning Day 4 or anti-CSF1R 10 mg/kg i.p. Days 4, 8, 12, in combinations anti-mCD40 5 mg/kg i.p. Days 1, 5, 9", "value": 38, "unit": "%"}, {"measurement": "Median TTE", "setting": "Groups 3-7: all dosing from Day 1 (antibodies i.p. Days 1, 5, 9, formula (I) p.o. bid×14), formula (I) and anti-CSF1R 10 mg/kg, anti-mCD40 5 mg/kg, 1500 mm^3 endpoint", "value": 13.0, "unit": "days"}, {"measurement": "% TGD", "setting": "[1]", "value": 7, "unit": "%"}, {"measurement": "T-C", "setting": "[1]", "value": 0.9, "unit": "days"}, {"measurement": "Median TTE", "setting": "Groups 9, 11, 13, 14: formula (I) 10 mg/kg p.o. bid×14 beginning Day 4 or anti-CSF1R 10 mg/kg i.p. Days 4, 8, 12, in combinations anti-mCD40 5 mg/kg i.p. Days 1, 5, 9, 1500 mm^3 endpoint", "value": 13.9, "unit": "days"}, {"measurement": "% TGD", "setting": "[2]", "value": 15, "unit": "%"}, {"measurement": "T-C", "setting": "[2]", "value": 1.8, "unit": "days"}]}]}
